Source: patent US20070167499A1, “Biaryl linked hydroxamates: preparation and pharmaceutical applications” (A*BIO Pte Ltd., priority 2003, published 2007)

Columns and labels:
Colo205 = assay: Cell-based proliferation assay for determination of GI50 values, colon cancer cell line; conditions: Homo sapiens, COLO 205; 96 h treatment, cyquant cell proliferation assay; read-out: Cellular activities GI50, Colo205
Protocol: (§1) Cell-based Proliferation assay for determination of GI50 values
(§2) Three different cancer cell lines were obtained from ATCC: Human colon cancer cell line (Colo205), human breast cancer cell lines (MDA-MB435), and human lung cancer cell line (NCl-H522). Colo205 cells and NCl-H522 were cultivated in RPMI 1640 containing 2 mM
(§3) L-Glutamine, 5% FBS, 1.0 mM Na Pyruvate. MDA-MB435 cells were cultivated in DMEM containing 2 mM L-Glutamine, 5% FBS. Colo205 cells were seeded in 96-wells plate at 2000 and 5000 cells per well respectively. MDA-MB435 and NCl-H522 cells were seeded in 96-wells plate at 6000 cells per well. The plates were incubated at 37° C., 5% CO2, for 24 h. Cells were treated with compounds at various concentrations for 96 h. Cell growth was then monitored using cyquant cell proliferation assay (Invitrogen Pte Ltd). Dose response curves were plotted to determine GI50 values for the compounds using XL-fit (ID Business Solution, Emeryville, Calif.).

NCI H552 = assay: Cell-based proliferation assay for determination of GI50 values, lung cancer cell line; conditions: Homo sapiens; 96 h treatment, cyquant cell proliferation assay; read-out: Cellular activities GI50, NCI H552
Protocol: as §1, §2, §3

GI50 (Colo205): 5.47 µM
Compound: CC(C)(C)OC(=O)N1CCN(c2ccc(C(=O)Nc3nc(-c4ccc(CC(=O)NO)s4)cs3)cc2)CC1 [Example 9]
GI50 (NCI H552): 3.01 µM
